Measured values from US9242943B2, “1,4 oxazines as BACE1 and/or BACE2 inhibitors” (SIENA BIOTECH S.P.A., priority 2011, dated 2016).

Legend:
[1] = molecular target: BACE1 (Homo sapiens (Human), UniProt P56817); assay: Cellular Aβ-lowering assay (Aβ40 ELISA, HEK293 cells expressing human APP695); assay type: cell-based; conditions: HEK293 cells stably transfected with human APP695; 18-20 hrs incubation; Aβ40 in supernatant; read-out: BACE1 cell act. Aβ40 IC50
Procedure: Cellular Aβ-Lowering Assay:
Human HEK293 cells which are stably transfected with a vector expressing a cDNA of the human APP wt gene (APP695) were used to assess the potency of the compounds in a cellular assay. The cells were seeded in 96-well microtiter plates in cell culture medium (Iscove, plus 10% (v/v) fetal bovine serum, glutamine, penicillin/streptomycin) to about 80% confluence and the compounds were added at a 10× concentration in 1/10 volume of medium without FCS containing 8% DMSO (final concentration of DMSO was kept at 0.8% v/v). After 18-20 hrs incubation at 37° C. and 5% CO2 in a humidified incubator the culture supernatant was harvested for the determination of […] concentrations. 96well ELISA plates (e.g., Nunc MaxiSorb) were coated with monoclonal antibody which specifically recognize the C-terminal end of […] (Brockhaus et al., NeuroReport 9, 1481-1486; 1998). After blocking of non-specific binding sites with e.g. 1% BSA and washing, the culture supernatants were added in suitable dilutions together with a horseradish peroxidase-coupled Aβ detection antibody (e.g., antibody 4G8, Senetek, Maryland Heights, Mo.) and incubated for 5 to 7 hrs. Subsequently the wells of the microtiter plate were washed extensively with Tris-buffered saline containing 0.05% Tween 20 and the assay was developed with tetramethylbenzidine/H2O2 in citric acid buffer. After stopping the reaction with one volume 1 N H2SO4 the reaction was measured in an ELISA reader at 450 nm wavelength. The concentrations of Aβ in the culture supernatants were calculated from a standard curve obtained with known amounts of pure Aβ peptide.

[2] = molecular target: BACE2 (Rattus norvegicus (Rat), UniProt Q6IE75); assay: Assay for BACE inhibition by measuring cellular TMEM27 cleavage (INS-TMEM27 cells, ELISA); assay type: cell-based; conditions: INS-TMEM27 (INS1e-derived) cells; shed TMEM27 in supernatant; read-out: BACE2 cell act. IC50
Sequence of BACE2 (Q6IE75 63-514): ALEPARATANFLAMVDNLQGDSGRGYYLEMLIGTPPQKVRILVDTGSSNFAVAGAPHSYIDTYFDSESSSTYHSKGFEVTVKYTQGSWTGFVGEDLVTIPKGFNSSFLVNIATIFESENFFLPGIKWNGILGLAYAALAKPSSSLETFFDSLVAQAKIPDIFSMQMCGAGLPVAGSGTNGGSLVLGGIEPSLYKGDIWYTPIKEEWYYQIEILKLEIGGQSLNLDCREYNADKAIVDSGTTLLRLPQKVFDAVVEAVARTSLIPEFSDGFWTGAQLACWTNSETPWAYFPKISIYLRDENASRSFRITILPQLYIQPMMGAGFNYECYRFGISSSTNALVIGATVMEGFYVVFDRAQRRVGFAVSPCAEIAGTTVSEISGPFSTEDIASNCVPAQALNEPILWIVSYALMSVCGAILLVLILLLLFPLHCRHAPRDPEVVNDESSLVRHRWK
Source text: Assay for BACE Inhibition by Measuring Cellular TMEM27 Cleavage:
The assay uses the principle of inhibition of human TMEM27 cleavage by endogenous cellular BACE2 in the Ins1e rat cell line and shedding from the cell surface into the culture medium, followed by detection in an ELISA assay. Inhibition of BACE2 prevents the cleavage and shedding in a dose-dependent manner
The stable cell line “INS-TMEM27” represents an INS1e-derived cell line with inducible expression (using the TetOn system) of full-length hTMEM27 in a doxycycline-dependent manner. The cells are cultured throughout the experiment in RPMI1640 +Glutamax (Invitrogen) Penicillin/Streptomycin, 10% Fetal bovine serum, […], […], 100 micrograms/ml G418 and 100 microgram/ml hygromycin and are grown inadherent culture at 37° C. in a standard CO2 cell culture incubator.
INS-TMEM27 cells are seeded in 96-well plates. After 2 days in culture, BACE2 inhibitor is added in a range of concentrations as required by the assay and after a further two hours, doxycycline is added to a final concentration of 500 ng/ml. The cells are incubated for a further 46 hours and the supernatant harvested for detection of shed TMEM27.
An ELISA assay (using a pair of mouse anti-human-TMEM27 antibodies, raised against the extracellular domain of TMEM27) is used for detection of TMEM27 in the culture medium. An EC50 for BACE2 inhibition is calculated using the ELISA readout for each inhibitor concentration with standard curve-fitting software such as XLFit for the Excel spreadsheet program.

[3] = molecular target: CYP3A4 (Homo sapiens (Human), UniProt P08684); assay: CYP inhibition assay, human liver microsomes, midazolam 1' hydroxylase; assay type: in vitro ADME; conditions: pooled human liver microsomes, midazolam substrate; read-out: CYP IC50 3A4
Sequence of CYP3A4 (P08684 whole entry): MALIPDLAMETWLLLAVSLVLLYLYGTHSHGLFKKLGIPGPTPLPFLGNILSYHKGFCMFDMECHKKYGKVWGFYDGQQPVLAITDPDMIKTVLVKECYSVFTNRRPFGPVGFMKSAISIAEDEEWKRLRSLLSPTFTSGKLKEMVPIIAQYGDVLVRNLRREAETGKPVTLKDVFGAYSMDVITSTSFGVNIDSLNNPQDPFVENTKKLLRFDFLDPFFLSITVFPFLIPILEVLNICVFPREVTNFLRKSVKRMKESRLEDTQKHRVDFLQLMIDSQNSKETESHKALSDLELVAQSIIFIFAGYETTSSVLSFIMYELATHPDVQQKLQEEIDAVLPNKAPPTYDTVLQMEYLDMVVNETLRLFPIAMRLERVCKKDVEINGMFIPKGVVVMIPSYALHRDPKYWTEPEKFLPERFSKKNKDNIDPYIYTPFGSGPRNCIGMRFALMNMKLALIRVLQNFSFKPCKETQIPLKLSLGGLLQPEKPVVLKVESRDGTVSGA
Procedure: (§1) Inhibition of cytochromes P450 (CYPs) 2C9, 2D6 and 3A4 was assessed using human liver microsomes and CYP-selective substrate metabolism reactions. 50 μl incubations were made up containing (finally) 0.2 mg/ml pooled human liver microsomes, 5 μM substrate (diclofenac for CYP2C9 [4′ hydroxylase], dextromethorphan for CYP2D6 [O-demethylase] or midazolam for CYP3A4 [1′ hydroxylase]), 0.25 μl, DMSO containing test inhibitor and NADPH regenerating system. Test inhibitor concentrations of 50, 16.7, 5.6, 1.9, 0.6 and 0.2 μM were assessed in singlicate. Incubations were prewarmed to 37° C. for 10 minutes before initiation by addition of NADPH regenerating system. Incubations were quenched after 5 minutes (20 minutes for dextromethorphan) by addition of 50 μl cold acetonitrile containing 20 ng/ml 4-OH-diclofenac-13C6, 20 ng/mL dextrorphan-D3 and 20 ng/mL 1-OH-midazolam-D4. Quenched incubates were stored at −20° C. for at least 1 hour before centrifugation (20,000×g, 20 minutes). Supernatants were removed and diluted 1:1 with water prior to analysis using a RapidFire sample injector system and API4000 mass spectrometer. Peak areas for substrate, metabolite and stable-labelled metabolite standard were determined using MS/MS. […] The percentage of (DMSO) control activity was calculated for each incubate and IC50 values estimated by non-linear regression. […]

[4] = molecular target: CYP2D6 (Homo sapiens (Human), UniProt P10635); assay: CYP inhibition assay, human liver microsomes, dextromethorphan O-demethylase; assay type: in vitro ADME; conditions: pooled human liver microsomes, dextromethorphan substrate; read-out: CYP IC50 2D6
Sequence of CYP2D6 (P10635 whole entry): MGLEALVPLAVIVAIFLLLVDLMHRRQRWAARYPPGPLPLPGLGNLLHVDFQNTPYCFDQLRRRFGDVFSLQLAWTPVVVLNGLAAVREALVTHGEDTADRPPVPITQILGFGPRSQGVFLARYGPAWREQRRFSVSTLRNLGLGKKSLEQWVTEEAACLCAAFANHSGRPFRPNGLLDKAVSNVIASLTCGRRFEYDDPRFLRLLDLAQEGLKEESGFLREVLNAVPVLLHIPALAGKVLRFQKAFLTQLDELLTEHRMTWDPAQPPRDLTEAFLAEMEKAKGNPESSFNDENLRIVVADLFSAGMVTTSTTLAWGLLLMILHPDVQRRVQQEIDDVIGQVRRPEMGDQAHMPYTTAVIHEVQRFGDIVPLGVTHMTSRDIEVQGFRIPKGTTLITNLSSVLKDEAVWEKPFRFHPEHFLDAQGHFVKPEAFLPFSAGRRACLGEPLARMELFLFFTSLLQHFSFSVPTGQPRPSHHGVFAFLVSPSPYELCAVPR
Procedure: as §1

[5] = molecular target: CYP2C9 (Homo sapiens (Human), UniProt P11712); assay: CYP inhibition assay, human liver microsomes, diclofenac 4' hydroxylase; assay type: in vitro ADME; conditions: pooled human liver microsomes, diclofenac substrate; read-out: CYP IC50 2C9
Sequence of CYP2C9 (P11712 whole entry): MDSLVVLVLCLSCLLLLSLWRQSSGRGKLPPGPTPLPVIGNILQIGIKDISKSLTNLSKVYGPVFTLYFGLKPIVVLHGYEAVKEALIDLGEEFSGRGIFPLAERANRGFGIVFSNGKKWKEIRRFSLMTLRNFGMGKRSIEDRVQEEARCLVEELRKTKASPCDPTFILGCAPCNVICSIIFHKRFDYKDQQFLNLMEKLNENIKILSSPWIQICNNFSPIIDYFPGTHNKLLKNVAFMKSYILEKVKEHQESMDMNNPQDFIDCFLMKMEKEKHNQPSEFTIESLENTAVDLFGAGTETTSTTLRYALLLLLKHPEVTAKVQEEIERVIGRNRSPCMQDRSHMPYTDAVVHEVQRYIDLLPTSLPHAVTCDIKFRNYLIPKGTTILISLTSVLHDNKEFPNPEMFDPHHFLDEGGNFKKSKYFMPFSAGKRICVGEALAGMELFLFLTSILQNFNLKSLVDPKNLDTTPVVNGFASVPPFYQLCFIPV
Procedure: as §1

Sequence of BACE1 (P56817 46-501): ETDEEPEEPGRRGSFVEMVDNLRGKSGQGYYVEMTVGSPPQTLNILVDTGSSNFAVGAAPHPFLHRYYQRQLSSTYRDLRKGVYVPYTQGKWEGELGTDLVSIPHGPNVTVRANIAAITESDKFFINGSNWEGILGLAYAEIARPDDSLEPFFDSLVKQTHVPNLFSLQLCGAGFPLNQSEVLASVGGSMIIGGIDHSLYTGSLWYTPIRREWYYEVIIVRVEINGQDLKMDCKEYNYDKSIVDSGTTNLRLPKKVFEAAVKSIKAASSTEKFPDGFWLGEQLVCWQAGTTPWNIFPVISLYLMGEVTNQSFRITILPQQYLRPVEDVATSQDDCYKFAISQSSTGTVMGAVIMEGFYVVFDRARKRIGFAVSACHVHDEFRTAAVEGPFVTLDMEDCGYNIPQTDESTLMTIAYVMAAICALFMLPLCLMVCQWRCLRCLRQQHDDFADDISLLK

Row | SMILES | IC50 [1] [nM] | IC50 [2] [nM] | IC50 [3] [nM] | IC50 [4] [nM] | IC50 [5] [nM]
1 | CC(C)CCNc1ccc(F)c([C@]2(C)COCC(N)=N2)c1 [Example 6, (R)-5-(2-fluoro-5-(isopentylamino)phenyl)-5-methyl-5,6-dihydro-2H-1,4-oxazin-3-amine] | 1360 | 605 |  |  | 
2 | C[C@@]1(c2cc(NCCC(F)(F)F)ccc2F)COCC(N)=N1 [Example 12, (R)-5-(2-fluoro-5-(3,3,3-trifluoropropylamino)phenyl)-5-methyl-5,6-dihydro-2H-1,4-oxazin-3-amine] | 1090 | 2900 |  |  | 
3 | C[C@@]1(c2cc(NC3CCC3)ccc2F)COCC(N)=N1 [Example 14, (R)-5-(5-Cyclobutylamino-2-fluoro-phenyl)-5-methyl-5,6-dihydro-2H-[1,4]oxazin-3-ylamine] | 260 | 1170 |  |  | 
4 | C[C@@]1(c2cc(NC3CCCC3)ccc2F)COCC(N)=N1 [Example 15, (R)-5-(5-(cyclopentylamino)-2-fluorophenyl)-5-methyl-5,6-dihydro-2H-1,4-oxazin-3-amine] | 120 | 170 |  |  | 
5 | C[C@@]1(c2cc(NC3CCOC3)ccc2F)COCC(N)=N1 (stereo partly drawn) [Example 18, (R)-5-[2-Fluoro-5-(tetrahydro-furan-3-ylamino)-phenyl]-5-methyl-5,6-dihydro-2H-[1,4]oxazin-3-ylamine] | 320 | 3390 |  |  | 
6 | C[C@@]1(c2cc(N[C@H]3CCC[C@@H]3O)ccc2F)COCC(N)=N1 [Example 19, (1S,2S)-2-(3-((R)-5-amino-3-methyl-3,6-dihydro-2H-1,4-oxazin-3-yl)-4-fluorophenylamino)cyclopentanol] | 1210 | 3420 |  |  | 
7 | C[C@@]1(c2cc(N[C@H]3CCC[C@H]3O)ccc2F)COCC(N)=N1 [Example 20, (1R,2S)-2-(3-((R)-5-amino-3-methyl-3,6-dihydro-2H-1,4-oxazin-3-yl)-4-fluorophenylamino)cyclopentanol] | 610 | 2270 |  |  | 
8 | C[C@@]1(c2cc(NCC3CC3)ccc2F)COCC(N)=N1 [Example 21, (R)-5-(5-(cyclopropylmethylamino)-2-fluorophenyl)-5-methyl-5,6-dihydro-2H-1,4-oxazin-3-amine] | 130 | 279 |  |  | 
9 | C[C@@]1(c2cc(NC[C@H]3CCCO3)ccc2F)COCC(N)=N1 [Example 22, (R)-5-(2-fluoro-5-(((R)-tetrahydrofuran-2-yl)methylamino)phenyl)-5-methyl-5,6-dihydro-2H-1,4-oxazin-3-amine] | 1110 | 2430 |  |  | 
10 | CC(C)C(Nc1ccc(F)c([C@]2(C)COCC(N)=N2)c1)c1ccc(Cl)cn1 (stereo partly drawn) [Example 23, (R)-5-{5-[1-(5-Chloro-pyridin-2-yl)-2-methyl-propylamino]-2-fluoro-phenyl}-5-methyl-5,6-dihydro-2H-[1,4]oxazin-3-ylamine] | 3710 | 1660 |  |  | 
11 | CC1(c2cccc(Nc3cccc4cc(Cl)cnc34)c2)COCC(N)=N1 (centres unmarked) [Example 24, [3-(5-Amino-3-methyl-3,6-dihydro-2H-[1,4]oxazin-3-yl)-phenyl]-(3-chloro-quinolin-8-yl)-amine] | 250 | 18 |  |  | 
12 | C[C@@]1(c2cc(Nc3cccc4cc(Cl)cnc34)ccc2F)COCC(N)=N1 [Example 26, [3-((R)-5-Amino-3-methyl-3,6-dihydro-2H-[1,4]oxazin-3-yl)-4-fluoro-phenyl]-(3-chloro-quinolin-8-yl)-amine] | 160 | 77 |  |  | 
13 | C[C@@]1(c2cc(Nc3cc(Cl)cc4cc(Cl)cnc34)ccc2F)COCC(N)=N1 [Example 27, [3-((R)-5-Amino-3-methyl-3,6-dihydro-2H-[1,4]oxazin-3-yl)-4-fluoro-phenyl]-(3,6-dichloro-quinolin-8-yl)-amine] | 660 | 558 | 33000 | 4500 | > 50000
14 | C[C@@]1(c2cc(Nc3ccon3)ccc2F)COCC(N)=N1 [Example 33, (R)-5-[2-Fluoro-5-(isoxazol-3-ylamino)-phenyl]-5-methyl-5,6-dihydro-2H-[1,4]oxazin-3-ylamine] | 580 | 1210 |  |  | 
15 | Cn1nc(Nc2ccc(F)c([C@@]3(C)COCC(N)=N3)c2)c2ccc(Cl)cc21 [Example 34, (S)-5-(5-(6-chloro-1-methyl-1H-indazol-3-ylamino)-2-fluorophenyl)-5-methyl-5,6-dihydro-2H-1,4-oxazin-3-amine] | 1040 | 1480 | 25000 | 2000 | 6700
16 | C[C@]1(c2cc(NC3CCc4cc(Cl)ccc43)ccc2F)COCC(N)=N1 (stereo partly drawn) [Example 35, (S)-5-[5-(5-Chloro-indan-1-ylamino)-2-fluoro-phenyl]-5-methyl-5,6-dihydro-2H-[1,4]oxazin-3-ylamine] | 100 | 732 |  |  | 
17 | COc1cnc2c(Nc3cccc(C4(C)COCC(N)=N4)c3)cccc2c1 (centres unmarked) [Example 37, [3-(5-Amino-3-methyl-3,6-dihydro-2H-[1,4]oxazin-3-yl)-phenyl]-(3-methoxy-quinolin-8-yl)-amine] |  | 120 |  |  | 
18 | C[C@@]1(c2cc(NC3CCc4cc(Cl)cnc43)ccc2F)COCC(N)=N1 (stereo partly drawn) [Example 40, [3-((R)-5-Amino-3-methyl-3,6-dihydro-2H-[1,4]oxazin-3-yl)-4-fluoro-phenyl]-(3-chloro-6,7-dihydro-5H-[1]pyrindin-7-yl)-amine] | 320 | 1100 |  |  | 
19 | C[C@@]1(c2cc(Nc3ccccc3OCC(F)F)ccc2F)COCC(N)=N1 [Example 41, (R)-5-{5-[2-(2,2-Difluoro-ethoxy)-phenylamino]-2-fluoro-phenyl}-5-methyl-5,6-dihydro-2H-[1,4]oxazin-3-ylamine] | 2140 | 10 |  |  | 
20 | CC1(c2cccc(Nc3cccc4oc(C5CC5)nc34)c2)COCC(N)=N1 (centres unmarked) [Example 46, [3-(5-Amino-3-methyl-3,6-dihydro-2H-[1,4]oxazin-3-yl)-phenyl]-(2-cyclopropyl-benzooxazol-4-yl)-amine] |  | 300 |  |  | 
